In ChEMBL document CHEMBL3885881, “DrugMatrix”:

Species: Rattus norvegicus
Assay: DrugMatrix - Regimen: Daily Repeat
Type: toxicity, organism-based, Sprague-Dawley
Parameters: regimen Daily Repeat, gender Male, age 6-8 weeks
Details: in vivo, po, route oral GAVAGE, vehicle .5 % CMC; for ABSOLUTE BASOPHIL / ABSOLUTE EOSINOPHIL / ABSOLUTE LYMPHOCYTE / ABSOLUTE MONOCYTE / ABSOLUTE SEGMENTED NEUTROPHIL / BASOPHIL / EOSINOPHIL / ERYTHROCYTE COUNT / HEMATOCRIT / HEMOGLOBIN / LEUKOCYTE COUNT / LYMPHOCYTE / MEAN CORPUSCULAR HEMOGLOBIN / MEAN CORPUSCULAR HEMOGLOBIN CONCENTRATION / MEAN CORPUSCULAR VOLUME / MONOCYTE / NEUTROPHIL / NUCLEATED RED BLOOD CELLS / PLATELET COUNT: tissue Blood; for ALANINE AMINOTRANSFERASE / ALBUMIN / ALKALINE PHOSPHATASE / ASPARTATE AMINOTRANSFERASE / BLOOD UREA NITROGEN / CARBON DIOXIDE / CHLORIDE / CHOLESTEROL / CREATINE PHOSPHOKINASE / CREATININE / GLUCOSE / LACTATE DEHYDROGENASE / LIPASE / PHOSPHORUS / POTASSIUM / SODIUM / TOTAL BILIRUBIN / TOTAL PROTEIN / URIC ACID: tissue Plasma
[1] = 12 mg/kg, 72 h, dose level Low, time 3 day
[2] = 12 mg/kg, 120 h, dose level Low, time 5 day
[3] = 1200 mg/kg, 72 h, dose level High, time 3 day
[4] = 1200 mg/kg, 120 h, dose level High, time 5 day

## CC(=O)OCC(COC(C)=O)OC(C)=O [TRIACETIN]
[1]
  ABSOLUTE BASOPHIL: 0 CELLS/uL
  ABSOLUTE EOSINOPHIL: 0 CELLS/uL
  ABSOLUTE LYMPHOCYTE: 13591 CELLS/uL
  ABSOLUTE MONOCYTE: 0 CELLS/uL
  ABSOLUTE SEGMENTED NEUTROPHIL: 1342.33 CELLS/uL
  BASOPHIL: 0%
  EOSINOPHIL: 0%
  ERYTHROCYTE COUNT: 5.57 x10E6/uL
  HEMATOCRIT: 35.43%
  HEMOGLOBIN: 13.97 G/DL
  LEUKOCYTE COUNT: 14.93 x10E3/uL
  LYMPHOCYTE: 91.33%
  MEAN CORPUSCULAR HEMOGLOBIN: 25.13 pg
  MEAN CORPUSCULAR HEMOGLOBIN CONCENTRATION: 39.43 G/DL
  MEAN CORPUSCULAR VOLUME: 63.77 fL
  MONOCYTE: 0%
  NEUTROPHIL: 8.67%
  NUCLEATED RED BLOOD CELLS: 0 /100WBC
  PLATELET COUNT: 1332 x10E3/uL
  ALANINE AMINOTRANSFERASE: 52 u/L
  ALBUMIN: 4.5 G/DL
  ALKALINE PHOSPHATASE: 453.33 u/L
  ASPARTATE AMINOTRANSFERASE: 96.33 u/L
  BLOOD UREA NITROGEN: 14.33 mg/dL
  CARBON DIOXIDE: 21.67 mmol/L
  CHLORIDE: 105 MEQ/L
  CHOLESTEROL: 71.67 mg/dL
  CREATINE PHOSPHOKINASE: 251 u/L
  CREATININE: 0.21 mg/dL
  GLUCOSE: 185 mg/dL
  LACTATE DEHYDROGENASE: 165.33 u/L
  LIPASE: 9.33 u/L
  PHOSPHORUS: 13.93 mg/dL
  POTASSIUM: 6.64 MEQ/L
  SODIUM: 149.57 MEQ/L
  TOTAL BILIRUBIN: 0.17 mg/dL
  TOTAL PROTEIN: 6.2 G/DL
  URIC ACID: 2.07 mg/dL
[2]
  ABSOLUTE BASOPHIL: 0 CELLS/uL
  ABSOLUTE EOSINOPHIL: 0 CELLS/uL
  ABSOLUTE LYMPHOCYTE: 15649 CELLS/uL
  ABSOLUTE MONOCYTE: 168.33 CELLS/uL
  ABSOLUTE SEGMENTED NEUTROPHIL: 1016 CELLS/uL
  BASOPHIL: 0%
  EOSINOPHIL: 0%
  ERYTHROCYTE COUNT: 5.29 x10E6/uL
  HEMATOCRIT: 33.97%
  HEMOGLOBIN: 13.27 G/DL
  LEUKOCYTE COUNT: 16.83 x10E3/uL
  LYMPHOCYTE: 93%
  MEAN CORPUSCULAR HEMOGLOBIN: 25.03 pg
  MEAN CORPUSCULAR HEMOGLOBIN CONCENTRATION: 39.07 G/DL
  MEAN CORPUSCULAR VOLUME: 64.17 fL
  MONOCYTE: 1%
  NEUTROPHIL: 6%
  NUCLEATED RED BLOOD CELLS: 0 /100WBC
  PLATELET COUNT: 1422 x10E3/uL
  ALANINE AMINOTRANSFERASE: 45.67 u/L
  ALBUMIN: 4.27 G/DL
  ALKALINE PHOSPHATASE: 402 u/L
  ASPARTATE AMINOTRANSFERASE: 80.33 u/L
  BLOOD UREA NITROGEN: 15 mg/dL
  CARBON DIOXIDE: 24.33 mmol/L
  CHLORIDE: 103.67 MEQ/L
  CHOLESTEROL: 58 mg/dL
  CREATINE PHOSPHOKINASE: 234 u/L
  CREATININE: 0.12 mg/dL
  GLUCOSE: 156 mg/dL
  LACTATE DEHYDROGENASE: 145 u/L
  LIPASE: 8.33 u/L
  PHOSPHORUS: 14.27 mg/dL
  POTASSIUM: 7.19 MEQ/L
  SODIUM: 146.97 MEQ/L
  TOTAL BILIRUBIN: 0.17 mg/dL
  TOTAL PROTEIN: 5.73 G/DL
  URIC ACID: 1.77 mg/dL
[3]
  ABSOLUTE BASOPHIL: 0 CELLS/uL
  ABSOLUTE EOSINOPHIL: 0 CELLS/uL
  ABSOLUTE LYMPHOCYTE: 15023 CELLS/uL
  ABSOLUTE MONOCYTE: 340 CELLS/uL
  ABSOLUTE SEGMENTED NEUTROPHIL: 1637 CELLS/uL
  BASOPHIL: 0%
  EOSINOPHIL: 0%
  ERYTHROCYTE COUNT: 5.45 x10E6/uL
  HEMATOCRIT: 35.37%
  HEMOGLOBIN: 13.63 G/DL
  LEUKOCYTE COUNT: 17 x10E3/uL
  LYMPHOCYTE: 88%
  MEAN CORPUSCULAR HEMOGLOBIN: 25 pg
  MEAN CORPUSCULAR HEMOGLOBIN CONCENTRATION: 38.57 G/DL
  MEAN CORPUSCULAR VOLUME: 64.9 fL
  MONOCYTE: 2%
  NEUTROPHIL: 10%
  NUCLEATED RED BLOOD CELLS: 0 /100WBC
  PLATELET COUNT: 1322 x10E3/uL
  ALANINE AMINOTRANSFERASE: 49.33 u/L
  ALBUMIN: 4.13 G/DL
  ALKALINE PHOSPHATASE: 331 u/L
  ASPARTATE AMINOTRANSFERASE: 79.33 u/L
  BLOOD UREA NITROGEN: 14 mg/dL
  CARBON DIOXIDE: 19 mmol/L
  CHLORIDE: 102 MEQ/L
  CHOLESTEROL: 69.67 mg/dL
  CREATINE PHOSPHOKINASE: 229 u/L
  CREATININE: 0.18 mg/dL
  GLUCOSE: 149.33 mg/dL
  LACTATE DEHYDROGENASE: 172.67 u/L
  LIPASE: 10 u/L
  PHOSPHORUS: 14.13 mg/dL
  POTASSIUM: 7.15 MEQ/L
  SODIUM: 145.03 MEQ/L
  TOTAL BILIRUBIN: 0.17 mg/dL
  TOTAL PROTEIN: 5.83 G/DL
  URIC ACID: 1.73 mg/dL
[4]
  ABSOLUTE BASOPHIL: 0 CELLS/uL
  ABSOLUTE EOSINOPHIL: 0 CELLS/uL
  ABSOLUTE LYMPHOCYTE: 12251.33 CELLS/uL
  ABSOLUTE MONOCYTE: 0 CELLS/uL
  ABSOLUTE SEGMENTED NEUTROPHIL: 1215.33 CELLS/uL
  BASOPHIL: 0%
  EOSINOPHIL: 0%
  ERYTHROCYTE COUNT: 5.48 x10E6/uL
  HEMATOCRIT: 34.33%
  HEMOGLOBIN: 13.57 G/DL
  LEUKOCYTE COUNT: 13.47 x10E3/uL
  LYMPHOCYTE: 91%
  MEAN CORPUSCULAR HEMOGLOBIN: 24.77 pg
  MEAN CORPUSCULAR HEMOGLOBIN CONCENTRATION: 39.6 G/DL
  MEAN CORPUSCULAR VOLUME: 62.6 fL
  MONOCYTE: 0%
  NEUTROPHIL: 9%
  NUCLEATED RED BLOOD CELLS: 0 /100WBC
  PLATELET COUNT: 1274.67 x10E3/uL
  ALANINE AMINOTRANSFERASE: 49.33 u/L
  ALBUMIN: 4.07 G/DL
  ALKALINE PHOSPHATASE: 315.33 u/L
  ASPARTATE AMINOTRANSFERASE: 87.67 u/L
  BLOOD UREA NITROGEN: 16.67 mg/dL
  CARBON DIOXIDE: 25 mmol/L
  CHLORIDE: 103 MEQ/L
  CHOLESTEROL: 71 mg/dL
  CREATINE PHOSPHOKINASE: 262.67 u/L
  CREATININE: 0.16 mg/dL
  GLUCOSE: 147.33 mg/dL
  LACTATE DEHYDROGENASE: 331 u/L
  LIPASE: 8.33 u/L
  PHOSPHORUS: 13.2 mg/dL
  POTASSIUM: 6.8 MEQ/L
  SODIUM: 145.37 MEQ/L
  TOTAL BILIRUBIN: 0.17 mg/dL
  TOTAL PROTEIN: 6 G/DL
  URIC ACID: 1.37 mg/dL
